Experimental data taken from the NIST ThermoML archive (doi:10.1007/s10765-011-1087-7).

Legend:
[1] = xn = mol fraction of the nth substance listed; conditions: 101 kPa, Liquid; for speed of sound: Pulse-echo method
[2] = refractive index (Na D-line) (dimensionless); xn = mol fraction of the nth substance listed; conditions: 101 kPa, Liquid

CCCCCCC(C)O (stereo unspecified) [2-octanol] + Clc1cccc(Cl)c1
Conditions	mass density, [1] [kg/m3]	refractive index, [2]	speed of sound, [1] [m/s]	viscosity, [1] [mPa·s]
298.15 K, x2 = 0	–	–	–	6.566
298.15 K, x2 = 0.0694	840.61	1.4312	1300.1	5.146
298.15 K, x2 = 0.1166	857.54	1.4366	1295.8	4.43
298.15 K, x2 = 0.1823	881.65	1.4436	1290	3.7
298.15 K, x2 = 0.2395	903.41	1.4494	1285.1	3.231
298.15 K, x2 = 0.3143	932.89	1.4567	1278.7	2.754
298.15 K, x2 = 0.379	959.33	1.4631	1273.3	2.429
298.15 K, x2 = 0.4488	988.41	1.4698	1268	2.138
298.15 K, x2 = 0.5084	1014.16	1.4758	1263.7	1.934
298.15 K, x2 = 0.582	1047.42	1.4838	1258.9	1.715
298.15 K, x2 = 0.6659	1086.85	1.4939	1254.6	1.505
298.15 K, x2 = 0.7208	1114.21	1.5009	1252.4	1.394
298.15 K, x2 = 0.7847	1147.67	1.5099	1250.7	1.279
298.15 K, x2 = 0.8663	1194.04	1.5224	1250.4	1.151
298.15 K, x2 = 0.9434	1243.52	1.5349	1251.8	1.065
303.15 K, x2 = 0	–	–	–	5.178
303.15 K, x2 = 0.0694	836.24	1.4293	1282.4	4.351
303.15 K, x2 = 0.1166	852.87	1.4348	1278.1	3.821
303.15 K, x2 = 0.1823	876.71	1.4418	1272.3	3.246
303.15 K, x2 = 0.2395	898.21	1.4475	1267.5	2.847
303.15 K, x2 = 0.3143	927.45	1.4546	1261.2	2.412
303.15 K, x2 = 0.379	953.45	1.4608	1256.1	2.113
303.15 K, x2 = 0.4488	982.39	1.4677	1251	1.857
303.15 K, x2 = 0.5084	1007.74	1.4738	1246.9	1.679
303.15 K, x2 = 0.582	1040.69	1.4819	1242.3	1.51
303.15 K, x2 = 0.6659	1079.96	1.4921	1238.3	1.378
303.15 K, x2 = 0.7208	1107.42	1.4994	1236.2	1.302
303.15 K, x2 = 0.7847	1141.2	1.5084	1234.6	1.226
303.15 K, x2 = 0.8663	1187.75	1.5209	1234.2	1.14
303.15 K, x2 = 0.9434	1236.9	1.5327	1235.6	1.042
308.15 K, x2 = 0	–	–	–	4.162
308.15 K, x2 = 0.0694	832.14	1.4273	1264.6	3.517
308.15 K, x2 = 0.1166	848.59	1.4327	1260.1	3.17
308.15 K, x2 = 0.1823	871.91	1.4397	1254.2	2.759
308.15 K, x2 = 0.2395	892.9	1.4455	1249.6	2.463
308.15 K, x2 = 0.3143	920.82	1.4527	1243.5	2.119
308.15 K, x2 = 0.379	945.97	1.4589	1238.9	1.892
308.15 K, x2 = 0.4488	974.25	1.4658	1233.9	1.673
308.15 K, x2 = 0.5084	999.57	1.4718	1230.2	1.512
308.15 K, x2 = 0.582	1032.22	1.4798	1226	1.358
308.15 K, x2 = 0.6659	1071.96	1.4898	1221.9	1.207
308.15 K, x2 = 0.7208	1099.76	1.4969	1219.4	1.132
308.15 K, x2 = 0.7847	1134.17	1.5057	1217.9	1.05
308.15 K, x2 = 0.8663	1181.99	1.518	1217.3	0.956
308.15 K, x2 = 0.9434	1231.4	1.5298	1219.3	0.898
